# Laboratory results as given in ChEMBL document CHEMBL2385071, “Synthesis and biological investigation of coumarin piperazine (piperidine) derivatives as potential multireceptor atypical antipsychotics” (J Med Chem, 2013).
# Tests used:
# [1] = target: T1, 5-hydroxytryptamine receptor 1A (Rattus norvegicus, UniProt P19327); assay: biochemical
# T1 sequence (P19327 whole entry): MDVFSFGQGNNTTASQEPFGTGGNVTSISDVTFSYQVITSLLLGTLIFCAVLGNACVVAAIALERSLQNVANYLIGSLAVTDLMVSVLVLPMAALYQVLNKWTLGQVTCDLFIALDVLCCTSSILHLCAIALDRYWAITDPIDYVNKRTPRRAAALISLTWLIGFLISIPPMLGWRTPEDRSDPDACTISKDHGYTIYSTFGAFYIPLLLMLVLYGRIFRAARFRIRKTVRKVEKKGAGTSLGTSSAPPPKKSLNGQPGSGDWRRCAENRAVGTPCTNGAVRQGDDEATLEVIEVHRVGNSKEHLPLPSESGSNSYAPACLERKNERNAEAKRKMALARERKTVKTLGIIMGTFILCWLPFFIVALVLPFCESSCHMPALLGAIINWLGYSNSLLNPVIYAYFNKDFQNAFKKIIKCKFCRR
# Description: Displacement of [3H]8-OH-DPAT from 5HT1A receptor in rat cerebral cortex after 30 mins by liquid scintillation counting analysis
# D(2) dopamine receptor [2] = target: D(2) dopamine receptor (Rattus norvegicus, UniProt P61169)
# Chain of D(2) dopamine receptor (Rattus norvegicus, UniProt P61169) (P61169 whole entry): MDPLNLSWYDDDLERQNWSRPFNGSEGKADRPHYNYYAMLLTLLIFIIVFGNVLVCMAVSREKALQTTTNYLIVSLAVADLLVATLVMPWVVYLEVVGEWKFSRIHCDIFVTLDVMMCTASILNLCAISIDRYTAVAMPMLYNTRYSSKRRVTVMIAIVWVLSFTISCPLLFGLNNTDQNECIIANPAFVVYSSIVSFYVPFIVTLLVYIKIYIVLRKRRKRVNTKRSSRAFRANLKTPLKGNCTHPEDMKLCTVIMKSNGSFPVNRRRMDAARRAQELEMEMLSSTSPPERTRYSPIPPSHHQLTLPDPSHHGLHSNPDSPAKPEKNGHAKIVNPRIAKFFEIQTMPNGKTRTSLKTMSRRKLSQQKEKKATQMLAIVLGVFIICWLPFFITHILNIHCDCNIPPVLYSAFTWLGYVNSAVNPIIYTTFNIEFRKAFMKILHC
# [3] = target: 5-hydroxytryptamine receptor 2A (Rattus norvegicus, UniProt P14842); assay: Displacement of [3H]ketanserin from 5HT2A receptor in rat cerebral cortex after 15 mins by liquid scintillation counting analysis; assay type: tissue-based
# Chain of 5-hydroxytryptamine receptor 2A (Rattus norvegicus, UniProt P14842) (P14842 whole entry): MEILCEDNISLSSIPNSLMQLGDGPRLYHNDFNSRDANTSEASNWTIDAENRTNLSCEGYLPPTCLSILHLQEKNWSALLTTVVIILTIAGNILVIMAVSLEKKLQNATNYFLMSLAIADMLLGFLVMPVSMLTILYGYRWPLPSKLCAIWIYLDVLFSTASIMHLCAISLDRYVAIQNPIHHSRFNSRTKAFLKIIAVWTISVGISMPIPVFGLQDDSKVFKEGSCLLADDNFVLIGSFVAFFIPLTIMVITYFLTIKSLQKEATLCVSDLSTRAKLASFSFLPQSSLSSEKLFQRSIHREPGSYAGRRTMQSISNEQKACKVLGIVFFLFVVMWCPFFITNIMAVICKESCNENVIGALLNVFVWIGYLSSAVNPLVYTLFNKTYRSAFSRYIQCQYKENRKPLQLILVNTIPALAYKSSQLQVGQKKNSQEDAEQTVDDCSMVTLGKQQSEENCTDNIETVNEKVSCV
# Mus musculus = assay: Toxicity in po dosed mouse assessed as induction of catalepsy; assay type: organism-based; details: in vivo
# [4] = target: T2, 5-hydroxytryptamine receptor 2A (Homo sapiens, UniProt P28223); assay: Agonist activity at 5HT2A receptor (unknown origin) expressed in CHOK1 cells coexpressing Galpha15 at 10 uM by FLIPR assay relative to control; assay type: cell-based; details: CHO-K1
# T2 sequence (P28223 whole entry): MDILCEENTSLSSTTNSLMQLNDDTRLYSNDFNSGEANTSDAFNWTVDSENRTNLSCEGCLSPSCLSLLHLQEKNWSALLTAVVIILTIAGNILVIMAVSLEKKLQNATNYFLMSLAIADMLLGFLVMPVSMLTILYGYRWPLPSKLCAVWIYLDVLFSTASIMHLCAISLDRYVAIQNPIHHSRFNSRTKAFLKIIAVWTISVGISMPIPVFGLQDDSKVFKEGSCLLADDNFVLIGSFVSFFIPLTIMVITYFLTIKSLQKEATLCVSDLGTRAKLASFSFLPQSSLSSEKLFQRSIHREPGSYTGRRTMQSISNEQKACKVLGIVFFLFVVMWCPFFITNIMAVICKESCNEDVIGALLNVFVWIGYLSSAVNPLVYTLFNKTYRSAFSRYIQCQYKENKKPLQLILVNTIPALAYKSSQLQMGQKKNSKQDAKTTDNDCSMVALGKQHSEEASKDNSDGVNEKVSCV
# D(2) dopamine receptor [5] = target: T3, D(2) dopamine receptor (Homo sapiens, UniProt P14416); assay: Agonist activity at dopamine D2 receptor (unknown origin) expressed in CHOK1 cells coexpressing Galpha15 at 10 uM by FLIPR assay relative to control; assay type: cell-based; details: CHO-K1
# T3 sequence (P14416 whole entry): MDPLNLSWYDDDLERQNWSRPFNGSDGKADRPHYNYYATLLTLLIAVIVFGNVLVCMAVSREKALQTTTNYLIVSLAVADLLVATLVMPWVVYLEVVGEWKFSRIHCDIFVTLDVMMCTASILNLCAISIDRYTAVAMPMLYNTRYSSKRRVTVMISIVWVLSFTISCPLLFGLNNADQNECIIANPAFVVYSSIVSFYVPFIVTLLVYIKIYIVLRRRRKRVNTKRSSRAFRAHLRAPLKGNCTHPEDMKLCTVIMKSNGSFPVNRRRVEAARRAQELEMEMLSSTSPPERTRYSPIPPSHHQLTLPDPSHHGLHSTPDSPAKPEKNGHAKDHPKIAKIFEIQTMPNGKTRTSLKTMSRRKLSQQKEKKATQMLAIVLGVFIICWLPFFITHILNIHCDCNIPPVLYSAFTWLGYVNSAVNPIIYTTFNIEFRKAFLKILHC
# D(2) dopamine receptor [6] = target: T3, D(2) dopamine receptor; assay: Antagonist activity at dopamine D2 receptor (unknown origin) expressed in CHOK1 cells coexpressing Galpha15 assessed as inhibition of agonist-induced response at 10 uM incubated for 60 mins in incubator followed by 15 mins at room temperature by FLIPR assay relative to control; assay type: cell-based; details: CHO-K1
# D(2) dopamine receptor [7] = target: T3, D(2) dopamine receptor
# [8] = target: T2, 5-hydroxytryptamine receptor 2A; assay: Antagonist activity at 5HT2A receptor (unknown origin) expressed in CHOK1 cells coexpressing Galpha15 assessed as inhibition of agonist-induced response at 10 uM incubated for 60 mins in incubator followed by 15 mins at room temperature by FLIPR assay relative to control; assay type: cell-based; details: CHO-K1
# D(3) dopamine receptor = D(3) dopamine receptor (Homo sapiens, UniProt P35462); assay: Binding affinity to dopamine D3 receptor (unknown origin)
# Chain of D(3) dopamine receptor (P35462 whole entry): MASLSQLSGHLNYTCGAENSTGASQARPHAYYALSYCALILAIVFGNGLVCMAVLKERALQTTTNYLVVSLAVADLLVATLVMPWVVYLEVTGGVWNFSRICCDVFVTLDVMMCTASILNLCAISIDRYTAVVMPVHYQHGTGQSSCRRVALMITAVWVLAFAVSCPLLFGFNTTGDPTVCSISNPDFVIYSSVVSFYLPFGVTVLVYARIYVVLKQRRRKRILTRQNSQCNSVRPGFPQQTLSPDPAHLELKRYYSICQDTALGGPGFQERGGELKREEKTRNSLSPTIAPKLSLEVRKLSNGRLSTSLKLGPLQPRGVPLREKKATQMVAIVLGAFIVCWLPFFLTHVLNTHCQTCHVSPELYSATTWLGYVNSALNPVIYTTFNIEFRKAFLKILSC
# D(2) dopamine receptor [9] = target: T3, D(2) dopamine receptor; remark: listed apart in the source
# [10] = target: T4, 5-hydroxytryptamine receptor 1A (Homo sapiens, UniProt P08908); assay: Binding affinity to 5HT1A receptor (unknown origin)
# T4 sequence (P08908 whole entry): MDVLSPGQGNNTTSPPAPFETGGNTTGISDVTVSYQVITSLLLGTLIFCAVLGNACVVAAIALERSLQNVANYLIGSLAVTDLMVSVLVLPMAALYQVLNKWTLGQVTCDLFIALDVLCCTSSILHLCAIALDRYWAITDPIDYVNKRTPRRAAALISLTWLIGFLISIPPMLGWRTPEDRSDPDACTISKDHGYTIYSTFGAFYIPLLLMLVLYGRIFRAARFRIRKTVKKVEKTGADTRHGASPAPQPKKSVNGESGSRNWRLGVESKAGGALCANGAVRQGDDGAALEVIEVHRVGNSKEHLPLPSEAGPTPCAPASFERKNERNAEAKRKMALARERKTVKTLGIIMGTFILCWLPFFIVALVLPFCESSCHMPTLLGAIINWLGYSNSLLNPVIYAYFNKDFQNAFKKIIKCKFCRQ
SMILES,Ki [1],Ki (D(2) dopamine receptor [2]),Ki [3],also measured
O=c1ccc2ccc(OCCCCN3CCC(c4noc5cc(F)ccc45)CC3)cc2o1,553 nM,44.9 nM,1460 nM,
Cc1cc(OCCCCN2CCC(c3noc4cc(F)ccc34)CC2)cc2oc(=O)cc(C)c12,18.9 nM,459 nM,549 nM,
Cc1cc(=O)oc2cc(OCC(O)CN3CCC(c4noc5cc(F)ccc45)CC3)ccc12 (configuration not stated),517 nM,> 10000 nM,453 nM,
Cc1cc(=O)oc2cc(OCCCCN3CCN(c4ccccn4)CC3)ccc12,102 nM,2820 nM,897 nM,
COc1cccc(N2CCN(CCCCOc3ccc4c(C)cc(=O)oc4c3)CC2)c1,89.2 nM,156 nM,469 nM,
Cc1cc(=O)oc2cc(OCCCCN3CCN(c4cccc(C(F)(F)F)c4)CC3)ccc12,15.6 nM,143 nM,157 nM,
COc1ccccc1N1CCN(CCCCOc2ccc3c(-c4ccccc4)cc(=O)oc3c2)CC1,> 10000 nM,> 10000 nM,> 10000 nM,
O=c1cc(CO)c2ccc(OCCCCN3CCC(c4noc5cc(F)ccc45)CC3)cc2o1,2160 nM,> 10000 nM,> 10000 nM,
COc1ccccc1N1CCN(CCCCOc2ccc3c(C)cc(=O)oc3c2Cl)CC1,151 nM,119 nM,588 nM,
Cc1c(C)c2ccc(OCCCCN3CCC(c4noc5cc(F)ccc45)CC3)c(C)c2oc1=O,3070 nM,10.7 nM,607 nM,
Cc1cc(=O)oc2cc(OCCCCN3CCC(C(=O)c4ccc(F)cc4)CC3)ccc12,165 nM,182 nM,257 nM,
CN1CCN(C2=Nc3cc(Cl)ccc3Nc3ccccc32)CC1 [CLOZAPINE],,,,ED50 (Mus musculus): 92.73 mg/kg
NCCc1c[nH]c2ccc(O)cc12,,,,Activity [4]: 100%
Cc1cc(=O)oc2cc(OCCCCN3CCC(c4noc5cc(F)ccc45)CC3)c(Cl)cc12,17.2 nM,> 10000 nM,10.6 nM,
Cc1cc(=O)oc2cc(OCCCCN3CCN(c4cccc(Cl)c4Cl)CC3)ccc12,11.5 nM,1870 nM,101 nM,
CC(C)c1cc(=O)oc2cc(OCCCCN3CCC(c4noc5cc(F)ccc45)CC3)ccc12,> 10000 nM,2350 nM,> 10000 nM,
Cc1cc(=O)oc2cc(OCCCCCN3CCC(c4noc5cc(F)ccc45)CC3)ccc12,1720 nM,123 nM,306 nM,
NCCc1ccc(O)c(O)c1,,,,Activity (D(2) dopamine receptor [5]): 101%
OCCN1CCN(CCCN2c3ccccc3Sc3ccc(Cl)cc32)CC1 [PERPHENAZINE],,,,inhibition (D(2) dopamine receptor [6]): 100%; IC50 (D(2) dopamine receptor [7]): 0.3 nM
O=C(c1ccc(F)cc1)C1CCN(CCn2c(=O)[nH]c3ccccc3c2=O)CC1,,,,inhibition [8]: 99.9%
Cc1cc(=O)oc2cc(OCCCN3CCN(c4ccccc4)CC3)ccc12,,,,Ki (D(3) dopamine receptor): 18.9 nM; Ki (D(2) dopamine receptor [9]): 10.8 nM; Ki [10]: 0.79 nM
O=C1CC(c2ccccc2)c2ccc(OCCCCN3CCC(c4noc5cc(F)ccc45)CC3)cc2O1 (configuration not stated),> 10000 nM,515 nM,559 nM,
